Earlier results in patent US20060099249A1, “Modified release formulations of at least one form of tramadol” (priority 2002, published 2006).
Like-named read-outs stand apart in the source and are kept apart here.

Assays:
osteoarthritis [1] = details: 12 weeks, celecoxib 100 mg BID, Naproxen 500 mg BID
osteoarthritis [2] = details: rofecoxib 12.5 mg
[3] = Study No. 058, Nabumetone 1500 mg, over 6-weeks
[4] = Study No. 033, Ibuprofen 2400 mg, over 6-weeks
[5] = Study No. 040, Ibuprofen 2400 mg, over 6-weeks

Structure (SMILES)	Arthritis Pain VAS change from baseline, LS mean difference vs placebo (osteoarthritis [1]; Study No. 020)	Arthritis Pain VAS change from baseline, LS mean difference vs placebo (osteoarthritis [1]; Study No. 054)	WOMAC pain walking on a flat surface, mean difference vs placebo (osteoarthritis [2]; [3])	WOMAC pain walking on a flat surface, mean difference vs placebo (osteoarthritis [2]; [4])	WOMAC pain walking on a flat surface, mean difference vs placebo (osteoarthritis [2]; [5])	WOMAC pain walking on a flat surface, mean difference vs placebo (osteoarthritis [2]; Study No. 029, LS mean change from baseline over 6-weeks)
COc1ccc2cc([C@H](C)C(=O)O)ccc2c1 [Naproxen]	7.6 mm	11.2 mm	–	–	–	–
COc1ccc2cc(CCC(C)=O)ccc2c1 [Nabumetone]	–	–	10 mm	–	–	–
CC(C)Cc1ccc(C(C)C(=O)O)cc1 (stereo not drawn) [Ibuprofen]	–	–	–	13.5 mm	14.6 mm	–
CS(=O)(=O)c1ccc(C2=C(c3ccccc3)C(=O)OC2)cc1 [rofecoxib, Rofecoxib]	–	–	9.0 mm	12.4 mm	15.4 mm	14.3 mm
